Measurements from US8906825B2, “Herbicidal compositions comprising 4-amino-3-chloro-5-fluoro-6-(4-chloro-2-fluoro-3-methoxyphenyl) pyridine-2-carboxylic acid or a derivative thereof and triazolopyrimidine sulfonamides” (Dow AgroSciences LLC, priority 2012, dated 2014).

What was measured:
Test in all cases: Postemergence foliar-applied herbicidal mixtures, cereal crops, greenhouse (Example III)
Assay type in all cases: in vivo
[1] = tested on: CIRAR (Cirsium arvense (L.) Scop., Canada thistle); settings: visual score 0 to 100 percent after 20-22 days
Protocol: (§1) Seeds of the desired test plant species were planted in Sun Gro MetroMix® 306 planting mixture, which typically has a pH of 6.0 to 6.8 and an organic matter content of about 30 percent, in plastic pots with a surface area of 103.2 square centimeters (cm^2). […] The plants were grown for 7-36 days in a greenhouse with an approximate 14 hour photoperiod which was maintained at about 18° C. during the day and about 17° C. during the night. Nutrients and water were added on a regular basis and supplemental lighting was provided with overhead metal halide 1000-Watt lamps as necessary. The plants were employed for testing when they reached the second or third true leaf stage.
(§2) Treatments consisted of the benzyl ester of 4-amino-3-chloro-5-fluoro-6-(4-chloro-2-fluoro-3-methoxy-phenyl)pyridine-2-carboxylic acid (Compound A), formulated as an SC, a second cereal herbicide alone and then both in combination.
(§3) Other herbicidal components were applied on an active ingredient basis and included acetolactate synthase (ALS)-inhibiting herbicides (sulfonamide chemical class) florasulam formulated as Derby® and pyroxsulam formulated as PowerFlex®. A measured aliquot of benzyl ester of 4-amino-3-chloro-5-fluoro-6-(4-chloro-2-fluoro-3-methoxy-phenyl)pyridine-2-carboxylic acid (Compound A) was placed in 25 milliliter (mL) glass vials and diluted in a volume of 1.25% (v/v) AgriDex® crop oil concentrated to obtain a stock solution. Compound requirements are based upon a 12 mL application volume at a rate of 187 liters per hectare (L/ha). […] Formulated compounds were applied to the plant material with an overhead Mandel track sprayer equipped with an 8002E nozzle calibrated to deliver 187 L/ha over an application area of 0.503 square meters (m^2) at a spray height of 18 inches (46 cm) above average plant canopy. Control plants were sprayed in the same manner with the solvent blank.
(§4) The treated plants and control plants were placed in a greenhouse as described above and watered by sub-irrigation to prevent wash-off of the test compounds. After 20-22 days, the condition of the test plants as compared with that of the control plants was determined visually and scored on a scale of 0 to 100 percent where 0 corresponds to no injury and 100 corresponds to complete kill.
(§5) Colby's equation was used to determine the herbicidal effects expected from the mixtures (Colby, S. R. 1967. Calculation of the synergistic and antagonistic response of herbicide combinations. Weeds 15:20-22.).
(§6) The following equation was used to calculate the expected activity of mixtures containing two active ingredients, A and B: Expected=A+B−(A×B/100)

[2] = tested on: LAMPU (Lamium purpureum (L.), purple deadnettle); settings: Florasulam 1.25 gai/ha, visual score 0 to 100 percent after 20-22 days
Protocol: as §1, §2, §3, §4, §5, §6

[3] = tested on: MATCH (Chamomilla chamomilla (L.) Rydb., scented mayweed); settings: Florasulam 3.75 gai/ha, visual score 0 to 100 percent after 20-22 days
Protocol: as §1, §2, §3, §4, §5, §6

[4] = tested on: SASKR (Salsola iberica (L.), Russian thistle); settings: Florasulam 3.75 gai/ha, visual score 0 to 100 percent after 20-22 days
Protocol: as §1, §2, §3, §4, §5, §6

[5] = tested on: VERPE (Veronica persica Poir., bird's-eye speedwell); settings: visual score 0 to 100 percent after 20-22 days
Protocol: as §1, §2, §3, §4, §5, §6

[6] = tested on: VIOTR (Viola tricolor (L.), wild pansy); settings: Florasulam 3.75 gai/ha, visual score 0 to 100 percent after 20-22 days
Protocol: as §1, §2, §3, §4, §5, §6

## COc1ncc(F)c2nc(S(=O)(=O)Nc3c(F)cccc3F)nn12 [Florasulam, N-(2,6-difluorophenyl)-8-fluoro-5-methoxy[1,2,4]triazolo[1,5-c]pyrimidine-2-sulfonamide, reference compound]
[1]; Florasulam 1.25 gai/ha
  CIRAR Obs: 55%
[1]; Florasulam 3.75 gai/ha
  CIRAR Obs: 40%
[2]
  LAMPU Obs: 10%
[3]
  MATCH Obs: 65%
[4]
  SASKR Obs: 30%
[5]; Florasulam 1.25 gai/ha
  VERPE Obs: 10%
[5]; Florasulam 3.75 gai/ha
  VERPE Obs: 10%
[6]
  VIOTR Obs: 65%
